Test results: patent publication US12157730B2, “Heteroaryl derivative, method for producing same, and pharmaceutical composition comprising same as effective component” (VORONOI INC., priority 2019, dated 2024)

Biological target: T1, Ba/F3 cell EGFR Exon20 ins NPH (Homo sapiens, UniProt P00533, INS773NPH)
T1 construct: expressed in transfected cells; host or cells: Ba/F3
Assay: Ba/F3 cell proliferation suppression, EGFR Exon20 ins NPH
Assay type: cell-based
Conditions: GI50 class; Ba/F3 cell line with NPH inserted at Exon20 of EGFR; 72 hours
Summary of the method: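 Cells (3000–5000/well) plated 24 h before compound, 12-point 3-fold dilutions at 0.3 nM to 50 um final; Ba/F3 lines grown with 5 ng/ml IL-3. Viability by CellTiter-Glo luminescence after 72 h, growth ratio vs control, GI50 from curves; triplicate.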

SMILES	Ba/F3 (NPH) Activity
C=CC(=O)Nc1cc(Nc2cc(N3OCC[C@@H]3c3cccc(F)c3F)ncn2)c(OC)cc1N1CCN(C2COC2)CC1 [compound 923, N-(5-((6-((R)-3-(2,3-difluorophenyl)isoxazolidine-2-yl)pyrimidine-4-yl)amino)-4-methoxy-2-(4-(oxetane-3-yl)piperazine-1-yl)phenyl) acrylamide]	A (GI50 < 50 nM)
C=CC(=O)Nc1cc(Nc2cc(N3OCC[C@@H]3c3cc(F)cc(F)c3)ncn2)c(OC)cc1N1C[C@@H]2CCN(C)[C@@H]2C1 [compound 891, N-(5-((6-((R)-3-(3,5-difluorophenyl)isoxazolidine-2-yl)pyrimidine-4-yl)amino)-4-methoxy-2-((3aS,6aS)-1-methylhexahydropyrrolo [3,4-b]pyrrole-5(1H)-yl)phenyl) acrylamide]	A (GI50 < 50 nM)
C=CC(=O)Nc1cc(Nc2cc(N3OCC[C@@H]3c3c(F)cccc3F)ncn2)c(OC)cc1N1CCC(N2CCN(C3CC3)[C@H](C)C2)CC1 [Example 137, N-(2-(4-((R)-4-cyclopropyl-3-methylpiperazine-1-yl)piperidine-1-yl)-5-((6-((R)-3-(2,6-difluorophenyl)isoxazolidine-2-yl)pyrimidine-4-yl)amino)-4-methoxyphenyl) acrylamide]	B (50 nM ≤ GI50 < 500 nM)
C=CC(=O)Nc1cc(Nc2cc(N3OCC[C@@H]3c3ccc(C)nc3)ncn2)c(OC)cc1N1CCN(C2CCCC2)CC1 [Example 225, N-(2-(4-cyclopentylpiperazine-1-yl)-4-methoxy-5-((6-((R)-3-(6-methylpyridine-3-yl)isoxazolidine-2-yl)pyrimidine-4-yl)amino)phenyl)acrylamide]	B (50 nM ≤ GI50 < 500 nM)
C=CC(=O)Nc1cc(Nc2cc(N3OCC[C@@H]3c3cc(F)ccc3F)ncn2)c(OC)cc1N1CCC(N2CCN(C3CCCC3)CC2)CC1 [Example 100, N-(2-(4-(4-cyclopentylpiperazine-1-yl)piperidine-1-yl)-5-((6-((R)-3-(2,5-difluorophenyl)isoxazolidine-2-yl)pyrimidine-4-yl)amino)-4-methoxyphenyl) acrylamide]	A (GI50 < 50 nM)
C=CC(=O)Nc1cc(Nc2cc(N3OCC[C@@H]3Cc3cccc(F)c3C)ncn2)c(OC)cc1N1CCC(N2CCN(C3CC3)CC2)CC1 [compound 999, N-(2-(4-(4-cyclopropylpiperazine-1-yl)piperidine-1-yl)-5-((6-((S)-3-(3-fluoro-2-methylbenzyl)isoxazolidine-2-yl)pyrimidine-4-yl)amino)-4-methoxyphenyl) acrylamide]	A (GI50 < 50 nM)
C=CC(=O)Nc1cc(Nc2cc(N3OCC[C@@H]3c3cc(F)cc(F)c3)ncn2)c(OC)cc1N1CCC(N2C[C@@H]3CCN(C)[C@@H]3C2)CC1 [compound 446, N-(5-((6-((R)-3-(3,5-difluorophenyl)isoxazolidine-2-yl)pyrimidine-4-yl)amino)-4-methoxy-2-(4-((3aS,6aS)-1-methylhexahydropyrrolo [3,4-b]pyrrole-5(1H)-yl)piperidine-1-yl)phenyl)acrylamide]	A (GI50 < 50 nM)
C=CC(=O)Nc1cc(Nc2cc(N3OCC[C@@H]3c3ccc(Cl)c(Cl)c3)ncn2)c(OC)cc1N(C)CCOC [compound 679, N-(5-((6-((R)-3-(3,4-dichlorophenyl)isoxazolidine-2-yl)pyrimidine-4-yl)amino)-4-methoxy-2-((2-methoxyethyl)(methyl)amino)phenyl) acrylamide]	B (50 nM ≤ GI50 < 500 nM)
C=CC(=O)Nc1cc(Nc2cc(N3OCC[C@@H]3c3cccc(OC)c3)ncn2)c(OC)cc1N1CCC(N2CC[C@H](N(C)C)C2)CC1 [compound 729, N-(2-(4-((S)-3-(dimethylamino)pyrolidine-1-yl)piperidine-1-yl)-4-methoxy-5-((6-((R)-3-(3-methoxyphenyl)isoxazolidine-2-yl)pyrimidine-4-yl)amino)phenyl)acrylamide]	A (GI50 < 50 nM)
C=CC(=O)Nc1cc(Nc2cc(N3OCC[C@@H]3c3cccc(F)c3F)ncn2)c(OC)cc1N1CCC(N2CCN(C3COC3)CC2)CC1 [Example 195, N-(5-((6-((R)-3-(2,3-difluorophenyl)isoxazolidine-2-yl)pyrimidine-4-yl)amino)-4-methoxy-2-(4-(4-(oxetane-3-yl)piperazine-1-yl)piperidine-1-yl)phenyl) acrylamide]	A (GI50 < 50 nM)
C=CC(=O)Nc1cc(Nc2cc(N3OCC[C@@H]3c3ccc(C)nc3)ncn2)c(OC)cc1N1CCN(C)CC1 [Example 44, N-(4-methoxy-2-(4-methylpiperazine-1-yl)-5-((6-((R)-3-(6-methylpyridine-3-yl)isoxazolidine-2-yl)pyrimidine-4-yl)amino)phenyl) acrylamide]	B (50 nM ≤ GI50 < 500 nM)
C=CC(=O)Nc1cc(Nc2cc(N3OCC[C@@H]3c3ccc(Cl)cc3)ncn2)c(OC)cc1N1CCC(N2C[C@@H](C)O[C@@H](C)C2)CC1 [compound 868, N-(5-((6-((R)-3-(4-chlorophenyl)isoxazolidine-2-yl)pyrimidine-4-yl)amino)-2-(4-((2S,6R)-2,6-dimethylmorpholino)piperidine-1-yl)-4-methoxyphenyl) acrylamide]	A (GI50 < 50 nM)
C=CC(=O)Nc1cc(Nc2cc(N3OCC[C@@H]3c3cccc(F)c3Cl)ncn2)c(OC)cc1N1CCN(CC)CC1 [compound 559, N-(5-((6-((R)-3-(2-chloro-3-fluorophenyl)isoxazolidine-2-yl)pyrimidine-4-yl)amino)-2-(4-ethylpiperazine-1-yl)-4-methoxyphenyl) acrylamide]	A (GI50 < 50 nM)
C=CC(=O)Nc1cc(Nc2cc(N3OCC[C@@H]3c3ccc(F)cc3F)ncn2)c(OC)cc1N1CCN(CC2CC2)CC1 [compound 380, N-(2-(4-(cyclopropylmethyl)piperazine-1-yl)-5-((6-((R)-3-(2,4-difluorophenyl)isoxazolidine-2-yl)pyrimidine-4-yl)amino)-4-methoxyphenyl) acrylamide]	A (GI50 < 50 nM)
C=CC(=O)Nc1cc(Nc2cc(N3OCC[C@@H]3c3cccc(F)c3)ncn2)c(OC)cc1N1CCN(C2COC2)CC1 [compound 792, N-(5-((6-((R)-3-(3-fluorophenyl)isoxazolidine-2-yl)pyrimidine-4-yl)amino)-4-methoxy-2-(4-(oxetane-3-yl)piperazine-1-yl)phenyl) acrylamide]	A (GI50 < 50 nM)
C=CC(=O)Nc1cc(Nc2cc(N3OCC[C@@H]3c3ccc(Cl)c(Cl)c3)ncn2)c(OC)cc1N1CCC(N2CCN(C)CC2)CC1 [compound 681]	A (GI50 < 50 nM)
C=CC(=O)Nc1cc(Nc2cc(N3OCC[C@@H]3c3cccc4ccccc34)ncn2)c(OC)cc1N1CCC(N2CCN(C3CCC3)CC2)CC1 [Example 184, N-(2-(4-(4-cyclobutylpiperazine-1-yl)piperidine-1-yl)-4-methoxy-5-((6-((R)-3-(naphthalene-1-yl)isoxazolidine-2-yl)pyrimidine-4-yl)amino)phenyl)acrylamide]	B (50 nM ≤ GI50 < 500 nM)
C=CC(=O)Nc1cc(Nc2cc(N3OCC[C@@H]3c3cc(F)ccc3F)ncn2)c(OC)cc1N1CCC(N2CCO[C@H](C)C2)CC1 [compound 822, N-(5-((6-((R)-3-(2,5-difluorophenyl)isoxazolidine-2-yl)pyrimidine-4-yl)amino)-4-methoxy-2-(4-((R)-2-methylmorpholino)piperidine-1-yl)phenyl) acrylamide]	A (GI50 < 50 nM)
